From patent US12617783B2, “Heterocyclic GLP-1R agonists” (BIOMEA FUSION, INC., priority 2024, dated 2026)

These compounds were tested against T1, human GLP-1R (Homo sapiens, UniProt P43220) (assay: GLP-1R cAMP assay (Example B1a, HTRF, 30 min at room temperature)). Details: cAMP accumulation in HEK293 expressing human GLP-1R, no BETP, 30 min room temperature (Method B1a, compounds ID 1-609), Table 1; read-out: EC50.
T1 construct: host or cells: HEK293
Format: cell-based
Summary of the method: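 Competitive HTRF read-out of cAMP after 30 min room-temperature stimulation, BETP absent, of human GLP-1R-HEK293 cells (1,000/well) in HEPES buffer with 500 μM IBMX and 0.1% BSA. Activation normalised to GLP-1(7-37) positive control. EC50 from 4-parameter non-linear regression.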

T1 sequence (P43220 24-463): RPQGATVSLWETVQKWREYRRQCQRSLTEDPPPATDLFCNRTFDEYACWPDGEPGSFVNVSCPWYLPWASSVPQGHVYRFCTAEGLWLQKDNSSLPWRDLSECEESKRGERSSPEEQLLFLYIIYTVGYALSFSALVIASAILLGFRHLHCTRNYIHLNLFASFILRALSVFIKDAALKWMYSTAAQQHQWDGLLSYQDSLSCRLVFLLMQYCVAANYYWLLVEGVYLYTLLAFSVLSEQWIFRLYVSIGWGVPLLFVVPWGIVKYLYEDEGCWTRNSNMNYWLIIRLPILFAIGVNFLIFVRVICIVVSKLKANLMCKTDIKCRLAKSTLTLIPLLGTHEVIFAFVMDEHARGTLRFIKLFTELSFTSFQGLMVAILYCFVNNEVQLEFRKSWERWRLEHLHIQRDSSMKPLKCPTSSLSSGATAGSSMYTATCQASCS

EC50	SMILES
177 nM	Cc1cc(-n2nc3c(c2-n2ccn(-c4ccc5c(cnn5C)c4Cl)c2=O)[C@@H]2COC[C@H](C3)N2C(=O)c2cc3cc([C@H]4CCOC(C)(C)C4)ccc3n2[C@@]2(c3noc(=O)[nH]3)C[C@@H]2C)cc(C)c1F [Compound 222, 3-((1S,2S)-1-(2-((4R,8S)-3-(3-(4-chloro-1-methyl-1H-indazol-5-yl)-2-oxo-2,3-dihydro-1H-imidazol-1-yl)-2-(4-fluoro-3,5-dimethylphenyl)-2,4,5,7,8,9-hexahydro-4,8-epiminooxocino [5,4-c]pyrazole-10-carbonyl)-5-((S)-2,2-dimethyltetrahydro-2H-pyran-4-yl)-1H-indol-1-yl)-2-methylcyclopropyl)-1,2,4-oxadiazol-5(4H)-one]

The compounds below were run against T1, human GLP-1R (assay: GLP-1R cAMP assay (Example B1b, HTRF, 30 min at 37°)). Details: cAMP accumulation in HEK293 expressing human GLP-1R, no BETP, 30 min at 37° (Method B1b), Table 1.
Format: cell-based
Procedure: Assay was carried out with HEK293 expressing human GLP-1R using HTRF assay, developed by Wuxi Apptec. The method is a competitive assay between native cAMP produced by the cells and exogenous cAMP labeled with a proprietary dye d2. The tracer binding is visualized by a mAb anti-cAMP labeled with Cryptate. The signal (i.e. energy transfer) is inversely proportional to the concentration of CAMP in either standard or experimental sample. Compounds were tested in the absence of BETP. Ten microliter of cell suspension in assay buffer (5 mM HEPES, 500 μM IBMX, 0.1% BSA) were added to each well (1,000 cells per well) in a low volume 384-well plate for the assay. Serially diluted compounds were added in 100 nL volume to duplicate wells, by Labcyte Echo. GLP-1 (7-37) was used as positive control. Assay plate was incubated for 30 minutes at 37°. Stock of cAMP Detection Solution was prepared by mixing 38 parts of cAMP lysis buffer, 1 part of cAMP-D2, 1 part of anti-cAMP cryptate reagent (Cisbio #62AM4PEJ). Ten microliter of the cAMP Detection Solution was added to each well, and the assay plate was incubated for 1 hour at room temperature in the dark. Plates were read on Envision plate reader. The data were analyzed by ScreenUltra in Dotmatics, with % activation expressed using following formula: (Signal ratio […]*10000−negative control)/(postive control−negative control)*100. Dose response curves were plotted and EC50 values calculated by non-linear regression using 4-parameter fit. The potency (EC50) values for cAMP accumulation in HEK293 cells are reported in the Table 1 below (for compounds ID 610-708).

SMILES	EC50
Cc1cc(-n2nc3c(c2-n2ccn(-c4ccc5c(cnn5C)c4F)c2=O)[C@@H]2COC[C@H](C3)N2C(=O)c2cc3cc([C@@H]4CCOC(C)(C)C4)cc(F)c3n2[C@@]2(c3noc(=O)[nH]3)C[C@@H]2C)cc(C)c1F [Compound 706, 3-((1S,2S)-1-(5-((R)-2,2-dimethyltetrahydro-2H-pyran-4-yl)-7-fluoro-2-((4R,8S)-3-(3-(4-fluoro-1-methyl-1H-indazol-5-yl)-2-oxo-2,3-dihydro-1H-imidazol-1-yl)-2-(4-fluoro-3,5-dimethylphenyl)-2,4,5,7,8,9-hexahydro-4,8-epiminooxocino [5,4-c]pyrazole-10-carbonyl)-1H-indol-1-yl)-2-methylcyclopropyl)-1,2,4-oxadiazol-5 (4H)-one]	0.059 µM
Cc1cc(-c2nn3c(c2-n2ccn(-c4ccc5c(cnn5C)c4F)c2=O)[C@@H](C)N(C(=O)c2cc4cc([C@H]5CCOC(C)(C)C5)ccc4n2[C@@]2(c4noc(=O)[nH]4)C[C@@H]2C)CCC3)cc(C)c1F [Compound 702, 3-((1S,2S)-1-(5-((S)-2,2-dimethyltetrahydro-2H-pyran-4-yl)-2-((R)-3-(3-(4-fluoro-1-methyl-1H-indazol-5-yl)-2-oxo-2,3-dihydro-1H-imidazol-1-yl)-2-(4-fluoro-3,5-dimethylphenyl)-4-methyl-5,6,7,8-tetrahydro-4H-pyrazolo[1,5-a][1,4]diazepine-5-carbonyl)-1H-indol-1-yl)-2-methylcyclopropyl)-1,2,4-oxadiazol-5 (4H)-one]	> 0.1 µM
Cc1cc(-n2nc3c(c2-n2ccn(-c4ccc5c(cnn5C)c4F)c2=O)[C@@H]2COC[C@H](C3)N2C(=O)c2cc3cc(C4CCOC(C)(C)C4)cc(F)c3n2[C@@]2(c3noc(=O)[nH]3)C[C@@H]2C)cc(C)c1F (stereo partly drawn) [Compound 619, 3-((1S,2S)-1-(5-(2,2-dimethyltetrahydro-2H-pyran-4-yl)-7-fluoro-2-((4R,8S)-3-(3-(4-fluoro-1-methyl-1H-indazol-5-yl)-2-oxo-2,3-dihydro-1H-imidazol-1-yl)-2-(4-fluoro-3,5-dimethylphenyl)-2,4,5,7,8,9-hexahydro-4,8-epiminooxocino [5,4-c]pyrazole-10-carbonyl)-1H-indol-1-yl)-2-methylcyclopropyl)-1,2,4-oxadiazol-5(4H)-one]	0.0054 µM
Cc1cc(-n2nc3c(c2-n2ccn(-c4ccc5c(cnn5C)c4F)c2=O)[C@@H]2CCC[C@H](C3)N2C(=O)c2cc3cc([C@@H]4CCOC(C)(C)C4)cc(F)c3n2[C@@]2(c3noc(=O)[nH]3)C[C@@H]2C)cc(C)c1F [Compound 701, 3-((1S,2S)-1-(5-((R)-2,2-dimethyltetrahydro-2H-pyran-4-yl)-7-fluoro-2-((4S,8R)-3-(3-(4-fluoro-1-methyl-1H-indazol-5-yl)-2-oxo-2,3-dihydro-1H-imidazol-1-yl)-2-(4-fluoro-3,5-dimethylphenyl)-4,5,6,7,8,9-hexahydro-2H-4,8-epiminocycloocta [c]pyrazole-10-carbonyl)-1H-indol-1-yl)-2-methylcyclopropyl)-1,2,4-oxadiazol-5 (4H)-one]	> 0.1 µM
Cc1cc(-n2nc3c(c2-n2ccn(-c4ccc5c(cnn5C)c4F)c2=O)[C@@H]2CC[C@H](C3)N2C(=O)c2c(F)c3cc(C4CCOC(C)(C)C4)ccc3n2[C@@]2(c3noc(=O)[nH]3)C[C@@H]2C)cc(C)c1F (stereo in doubt) [Compound 712, 3-[(1S,2S)-1-[5-[(4S)-2,2-dimethyltetrahydropyran-4-yl]-3-fluoro-2-[(1S,8R)-4-(4-fluoro-3,5-dimethyl-phenyl)-3-[3-(4-fluoro-1-methyl-indazol-5-yl)-2-oxo-imidazol-1-yl]-4,5,11-triazatricyclo[6.2.1.02,6]undeca-2,5-diene-11-carbonyl]indol-1-yl]-2-methyl-cyclopropyl]-4H-1,2,4-oxadiazol-5-one]	0.112 µM
Cc1cc(-n2nc3c(c2-n2ccn(-c4ccc5c(cnn5C)c4F)c2=O)[C@@H]2CC[C@H](C3)N2C(=O)c2cc3cc([C@H]4CCOC(C)(C)C4)cc(F)c3n2[C@@]2(c3noc(=O)[nH]3)C[C@@H]2C)cc(C)c1F [Compound 711, 3-[(1S,2S)-1-[5-[(4S)-2,2-dimethyltetrahydropyran-4-yl]-7-fluoro-2-[(1S,8R)-4-(4-fluoro-3,5-dimethyl-phenyl)-3-[3-(4-fluoro-1-methyl-indazol-5-yl)-2-oxo-imidazol-1-yl]-4,5,11-triazatricyclo[6.2.1.02,6]undeca-2,5-diene-11-carbonyl]indol-1-yl]-2-methyl-cyclopropyl]-4H-1,2,4-oxadiazol-5-one]	0.006 µM

Now from value to compound:

EC50	SMILES
0.002 µM	Cc1cc(-n2nc3c(c2-n2ccn(-c4ccc5c(c4)C4(CC4)C(=O)N5C)c2=O)[C@@H]2CCC[C@H](C3)N2C(=O)c2cc3cc([C@H]4CCOC(C)(C)C4)ccc3n2[C@@]2(c3noc(=O)[nH]3)C[C@@H]2C)cc(C)c1F [Compound 714, 3-((1S,2S)-1-(5-((S)-2,2-dimethyltetrahydro-2H-pyran-4-yl)-2-((4S,8R)-2-(4-fluoro-3,5-dimethylphenyl)-3-(3-(1′-methyl-2′-oxospiro[cyclopropane-1,3′-indolin]-5′-yl)-2-oxo-2,3-dihydro-1H-imidazol-1-yl)-4,5,6,7,8,9-hexahydro-2H-[4,8]epiminocycloocta [c]pyrazole-10-carbonyl)-1H-indol-1-yl)-2-methylcyclopropyl)-1,2,4-oxadiazol-5 (4H)-one]
0.004 µM	Cc1cc(-n2nc3c(c2-n2ccn(-c4ccc5c(c4)N(C)C(=O)C5=O)c2=O)[C@@H]2CCC[C@H](C3)N2C(=O)c2cc3cc([C@H]4CCOC(C)(C)C4)ccc3n2[C@@]2(c3noc(=O)[nH]3)C[C@@H]2C)cc(C)c1F [Compound 710, 6-(3-((4S,8R)-10-(5-((S)-2,2-dimethyltetrahydro-2H-pyran-4-yl)-1-((1S,2S)-2-methyl-1-(5-oxo-4,5-dihydro-1,2,4-oxadiazol-3-yl)cyclopropyl)-1H-indole-2-carbonyl)-2-(4-fluoro-3,5-dimethylphenyl)-4,5,6,7,8,9-hexahydro-2H-4,8-epiminocycloocta [c]pyrazol-3-yl)-2-oxo-2,3-dihydro-1H-imidazol-1-yl)-1-methylindoline-2,3-dione]
0.0051 µM	CNC(=O)Cc1ccc(-n2ccn(-c3c4c(nn3-c3cc(C)c(F)c(C)c3)C[C@H]3CCC[C@@H]4N3C(=O)c3cc4cc([C@H]5CCOC(C)(C)C5)ccc4n3[C@@]3(c4noc(=O)[nH]4)C[C@@H]3C)c2=O)cc1F [Compound 611, 2-(4-(3-((4S,8R)-10-(5-((S)-2,2-dimethyltetrahydro-2H-pyran-4-yl)-1-((1S,2S)-2-methyl-1-(5-oxo-4,5-dihydro-1,2,4-oxadiazol-3-yl)cyclopropyl)-1H-indole-2-carbonyl)-2-(4-fluoro-3,5-dimethylphenyl)-4,5,6,7,8,9-hexahydro-2H-4,8-epiminocycloocta [c]pyrazol-3-yl)-2-oxo-2,3-dihydro-1H-imidazol-1-yl)-2-fluorophenyl)-N-methylacetamide]
0.0025 µM	Cc1cc(-n2nc3c(c2-n2ccn(-c4ccc5c(cnn5C5CC5)c4F)c2=O)[C@@H]2COC[C@H](C3)N2C(=O)c2cc3cc([C@H]4CCOC(C)(C)C4)ccc3n2[C@@]2(c3noc(=O)[nH]3)C[C@@H]2C)cc(C)c1F [Compound 617, 3-((1S,2S)-1-(2-((4R,8S)-3-(3-(1-cyclopropyl-4-fluoro-1H-indazol-5-yl)-2-oxo-2,3-dihydro-1H-imidazol-1-yl)-2-(4-fluoro-3,5-dimethylphenyl)-2,4,5,7,8,9-hexahydro-4,8-epiminooxocino [5,4-c]pyrazole-10-carbonyl)-5-((S)-2,2-dimethyltetrahydro-2H-pyran-4-yl)-1H-indol-1-yl)-2-methylcyclopropyl)-1,2,4-oxadiazol-5 (4H)-one]
